Here are results for one compound from patent US20250032409A1, “TREATMENT OF LOW-GRADE INTERMEDIATE-RISK NON-MUSCLE-INVASIVE BLADDER CANCER WITH A THERMALLY GELLING PHARMACEUTICAL COMPOSITION CONTAINING MITOMYCIN” (priority 2023, published 2025).

Molecules are shown by their SMILES.

Data set [1] is described as follows: OPTIMA II: mitomycin plasma concentrations. The data set is classed as in vivo, human.
Another data set relates to LG NMIBC. The note with it: dose-intensive administration as primary therapy for LG NMIBC; cited from earlier work.
Setting [2] is: human, plasma, other: instillation, read-out: Mitomycin plasma concentration, mean (standard deviation).

Consider `CO[C@@]12[C@H](COC(N)=O)C3=C(C(=O)C(C)=C(N)C3=O)N1C[C@@H]1N[C@@H]12` [Mitomycin], for which, in data set [1] (Pre-instillation, 6 patients, UGN-102), the “Mitomycin plasma concentration, mean (standard deviation)” value turned out to be 0 ng/mL. Also, in data set [1] (human, plasma, other: instillation, read-out: Concentration-time Curve (AUC) - Mean (standard deviation)), the AUC amounted to 5.69 ng·h/mL. In data set [1] (setting [2]), the concentration at 0.5 h worked out at 0.75 ng/mL, the concentration at 1 h was determined as 0.6 ng/mL, the concentration at 2 h was 0.34 ng/mL and the concentration at 3 h worked out at 1.88 ng/mL. In data set [1] (setting [2]), the concentration at 4 h stood at 1.93 ng/mL, the concentration at 5 h came to 0.57 ng/mL and the concentration at 6 h came out at 0.32 ng/mL. Besides, the Cmax in data set [1] (human, plasma, other: intravesical instillation (via urethral catheter), read-out: Concentration (Cmax)) was determined as 2.27 ng/mL. Further, the CR rates in the data set on LG NMIBC was 50-60%.
